Experimental data published in ChEMBL document CHEMBL1201862, “PubChem BioAssay data set” (2004).
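Compound exposure: 48 hours, 5 concentrations, 96-well plates. GI50 = concentration required for 50% inhibition of growth.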 Activity calls are given as the source filed them. No stated cut-off is given here; in the data, active = GI50 up to about 1.1 µM and inactive = higher.

How the values were obtained:
Test in all cases: NCI anticancer screen, dose series, 48 h
SNB-78 = test system: SNB-78
DMS-273 = test system: DMS-273
M19-MEL = test system: M19-MEL
KM-20L2 = test system: KM-20L2
DMS-114 = test system: DMS-114
LXFL 529 = test system: LXFL 529
XF498 = test system: XF498
DLD-1 = test system: DLD-1
RXF 631 = test system: RXF 631

Compound | GI50 (SNB-78) | GI50 (DMS-273) | GI50 (M19-MEL) | GI50 (KM-20L2) | GI50 (DMS-114) | GI50 (LXFL 529) | GI50 (XF498) | GI50 (DLD-1) | GI50 (RXF 631)
CC(=O)C1=C(O)C2C3c4c[nH]c5cccc(c45)CC3C(C)(C)N2C1=O (stereo unspecified) | > 100 µM (inactive) | 27.5 µM (inactive) | > 100 µM (inactive) | 31.6 µM (inactive) | 20.4 µM (inactive) | 78.3 µM (inactive) | 51.4 µM (inactive) | 40.8 µM (inactive) | 
Oc1c(C(Nc2cccc3cccnc23)c2ccccc2)ccc2cccnc12 (stereo unspecified) |  | 5.16 µM (inactive) | 5.53 µM (inactive) | 3.77 µM (inactive) | 2.65 µM (inactive) | 4.13 µM (inactive) |  |  | 
C[N+](C)(C)CC1CCCCC1=O (stereo unspecified) |  | 71.3 µM (inactive) | 18.5 µM (inactive) | 2 µM (inactive) | 36.9 µM (inactive) |  |  | 19.8 µM (inactive) | 
c1ccc(OC2=NC3=S(S2)SC(Oc2ccccc2)=N3)cc1 | 20.5 µM (inactive) | 25.8 µM (inactive) | 17.8 µM (inactive) | 22.3 µM (inactive) | 19.9 µM (inactive) |  | 15.7 µM (inactive) | 16.5 µM (inactive) | 25.1 µM (inactive)
CC(=O)Nc1ccc(C(=O)NN2C(=O)C(Cl)C2c2ccccc2)cc1 (stereo unspecified) | > 100 µM (inactive) | > 100 µM (inactive) | > 100 µM (inactive) | > 100 µM (inactive) |  | > 100 µM (inactive) |  | > 100 µM (inactive) | 
CC(N)Cc1cccc(C(F)(F)F)c1 (stereo unspecified) | > 100 µM (inactive) | > 100 µM (inactive) | > 100 µM (inactive) | > 100 µM (inactive) | > 100 µM (inactive) | > 100 µM (inactive) |  | > 100 µM (inactive) | > 100 µM (inactive)
CN(C)CCNC(=O)c1cccc2c(Nc3ccc(S(N)(=O)=O)cc3)c3ccccc3nc12 | 1.82 µM (inactive) | 0.783 µM (active) |  | 2.71 µM (inactive) | 0.461 µM (active) | 0.333 µM (active) | 0.209 µM (active) | 1.72 µM (inactive) | 1.4 µM (inactive)
COc1ccc(CNc2nc3ccc(C(F)(F)F)cc3nc2-c2ccccc2)cc1OC | > 100 µM (inactive) | 35.1 µM (inactive) | > 100 µM (inactive) | 47.6 µM (inactive) |  | 43.4 µM (inactive) | 13.2 µM (inactive) |  | 16.7 µM (inactive)
CSC(C1c2ccccc2N(c2ccc(C)cc2)c2[nH]c(=O)n(C)c(=O)c21)S(=O)(=O)c1ccc(C)cc1 (stereo unspecified) | > 100 µM (inactive) | > 100 µM (inactive) | > 100 µM (inactive) | > 100 µM (inactive) | > 100 µM (inactive) | > 100 µM (inactive) | > 100 µM (inactive) | > 100 µM (inactive) | 
C[C@@]12[Se]c3ccccc3[C@]1(C)[Se]c1ccccc12 |  | 3.61 µM (inactive) | 5.68 µM (inactive) | > 100 µM (inactive) | 2.12 µM (inactive) | > 100 µM (inactive) |  | > 100 µM (inactive) | 
N#CC12C3C4CC5C6C4C1C6C(O)(C53)N2Cc1ccccc1 (stereo unspecified) |  | > 100 µM (inactive) |  | > 100 µM (inactive) | > 100 µM (inactive) | > 100 µM (inactive) | > 100 µM (inactive) | > 100 µM (inactive) | > 100 µM (inactive)
COc1ccc(C[C@@H]2NC[C@@H](O)[C@@H]2OC(C)=O)cc1 |  | 0.634 µM (active) | 1.79 µM (inactive) | 3.95 µM (inactive) | 1.45 µM (inactive) | 1.32 µM (inactive) |  | 1.77 µM (inactive) | 
Cn1c2ccccc2c2cc(-c3ccccc3)c3c(c21)C(=O)C=CC3=O | > 42.1 µM (inactive) | 19.7 µM (inactive) | 20.1 µM (inactive) |  | 9.38 µM (inactive) | 6.68 µM (inactive) | 17.8 µM (inactive) | 13.6 µM (inactive) | 30.3 µM (inactive)
COc1ccc2c(c1)Cc1c-2[nH]c2cc3c(cc2c1=O)OCO3 | 8.83 µM (inactive) | 7.67 µM (inactive) | 15.7 µM (inactive) | 14.7 µM (inactive) | 4.07 µM (inactive) | 19.5 µM (inactive) | 15 µM (inactive) | 13.9 µM (inactive) | 
CCCCCCCCCCCCCCCCCC(CCCCCCCCCCCCCCCCC)OP(=O)(O)O | > 100 µM (inactive) | > 100 µM (inactive) | > 100 µM (inactive) | > 100 µM (inactive) | > 100 µM (inactive) | > 100 µM (inactive) |  |  | 
O=C(/C=C/c1ccccc1)CC(=O)CCC(=O)Nc1ccc(Cl)cc1 | > 100 µM (inactive) | 52.7 µM (inactive) | 71 µM (inactive) | 9.73 µM (inactive) | 57 µM (inactive) | 6.75 µM (inactive) |  | 29.2 µM (inactive) | 
C=CCSC[C@H](NC(=O)COc1ccccc1)C(=O)NC(C(=O)OCc1ccc([N+](=O)[O-])cc1)=C(C)C | 63.2 µM (inactive) | 50.4 µM (inactive) | 32.1 µM (inactive) | > 100 µM (inactive) | 45.3 µM (inactive) | 36.1 µM (inactive) |  | > 100 µM (inactive) | 90.8 µM (inactive)
O=C1C(Cl)C(c2cccc([N+](=O)[O-])c2)N1n1cnc2ccccc2c1=O (stereo unspecified) |  | > 100 µM (inactive) | > 100 µM (inactive) | 85.7 µM (inactive) | 86.9 µM (inactive) | 92.3 µM (inactive) |  | > 100 µM (inactive) | 
Cc1cc(NCCCCCCNc2cc(C)nc3cc(N(C)C)ccc23)c2ccc(N(C)C)cc2n1 |  | 3.64 µM (inactive) | 27.7 µM (inactive) |  |  |  | 13.7 µM (inactive) | 39.3 µM (inactive) | > 100 µM (inactive)
COC(=O)c1cc2ccccc2c2nc3ccccc3c(Cl)c12 |  | > 100 µM (inactive) | > 100 µM (inactive) | 11.4 µM (inactive) | > 100 µM (inactive) | > 100 µM (inactive) | > 100 µM (inactive) | > 100 µM (inactive) | > 100 µM (inactive)
CC(O)CCCOC(c1ccccc1)(c1ccccc1)c1ccccc1 (stereo unspecified) | 14.7 µM (inactive) |  | 17 µM (inactive) | 10.4 µM (inactive) | 13.2 µM (inactive) | 14.7 µM (inactive) | 14.7 µM (inactive) | 17.2 µM (inactive) | 
CN1CCN(c2nc(N)c(Br)c(Cl)n2)CC1 | > 100 µM (inactive) | > 100 µM (inactive) | > 100 µM (inactive) | > 100 µM (inactive) | > 100 µM (inactive) | > 100 µM (inactive) | > 100 µM (inactive) | > 100 µM (inactive) | 
C=C(C)C(O)CCC1(C)C=Cc2c(c(C)cc3c2[nH]c2ccccc23)O1 (stereo unspecified) | 8.77 µM (inactive) |  | 13.2 µM (inactive) | 3.99 µM (inactive) | 11.6 µM (inactive) | 8.05 µM (inactive) | 6.67 µM (inactive) | 7.28 µM (inactive) | 
Cc1ccc2c(c1)c(=O)c1c(NCCN(C)C)ccc3nnn2c31 | 6.22 µM (inactive) |  | 6.21 µM (inactive) | 3.03 µM (inactive) | 5.26 µM (inactive) | 3.48 µM (inactive) |  | 2.88 µM (inactive) | 
